Results as given in patent US20180237751A1, “METHOD FOR GENERATING BETA CELLS” (THE TRUSTEES OF COLUMBIA UNIVERSITY IN THE CITY OF NEW YORK, priority 2011, published 2018).

Key:
Type in all cases: cell-based, human
Wolfram iPS cells = assay: Unfolded protein response (UPR) analysis, Wolfram iPS cells and fibroblasts
Method: (§1) Wolfram and control iPSCs or fibroblasts were incubated with indicated dosages of thapsigargin (TG) or tunicamycin (TM) (Both were from Sigma) for 6 hours after an overnight starvation. 1 mM Sodium 4-phenylbutyrate (4PBA) (EMD Chemicals Inc.) was administrated one hour prior to and through TG or TM treatment. Cells were harvested and subjected to RNA and protein analysis. In vitro differentiated beta cells were treated with 10 nM TG for 12 hours, or 0.5 μg/ml TM for 6 hours with or without 1 mM 4PBA treatment one hour prior to and through TG or TM treatment. For long-term 4PBA treatment, cells were incubated with 1 mM 4PBA starting on day 9 of differentiation, when cells reached pancreatic endoderm stage, and maintained until day 15. Then cells were subjected to insulin secretion, RNA and protein analysis. RNA was isolated using RNAeasy plus kit (Qiagen). cDNA was generated by using RT kit (Promega). Primers for PCR analysis were as follows: XBP-1 for gel-imaging (Lee, Won et al.) forward 5′ […] 3′ (SEQ ID NO:1), reverse 5′ […] 3′ (SEQ ID NO:2); sXBP-1 for QPCR (Merquiol, Uzi et al. 2011) forward 5′ CTGAGTCCGCAGCAGGTG 3′(SEQ ID NO:3), reverse 5′ […] 3′ (SEQ ID NO:4); GRP78 forward 5′ […] 3′(SEQ ID NO:5), reverse 5′ […] 3′ (SEQ ID NO:6); Insulin forward 5′ […] 3′(SEQ ID NO:7), reverse 5′ CAATGCCACGCTTCTGC 3′(SEQ ID NO:8). GRP78 protein level was determined by western blot using mouse-anti GRP78 antibody (Santa Cruz, sc-166490).

control iPS cells = assay: Unfolded protein response (UPR) analysis, control iPS cells; conditions: 10 nM TG, 6 hour
Method: as §1, with “3′(SEQ ID NO:7), reverse 5′ CAATGCCACGCTTCTGC 3′(SEQ ID NO:8).” left out

Wolfram beta cells [1] = assay: UPR, insulin and proinsulin content and ER morphology in Wolfram beta cells
Method: (§2) Human ES or iPS cells were dissociated by Dispase (3-5 mins) and Accutase (5 mins, Sigma). Cells were suspended in human ES medium containing 10 μM Y27632, a ROCK inhibitor, and filtered through a 70 μm cell strainer. Then cells were seeded at a density of 800,000 cells/well in 12-well plates. After 1 or 2 days, when cells reached 80-90% confluence, differentiation was started. On Day 1: cells were briefly washed once with RPMI medium, then were treated with Activin A (100 ng/ml), Wnt3A (25 ng/ml) and 0.075 mM EGTA in RPMI medium. On day 2-3: cells were treated with Activin A (100 ng/ml) and 0.2% FBS in RPMI medium. On day 4-5: cells were treated with FGF10 (50 ng/ml), KAAD-cyclopamine (0.25 μM) and 2% FBS in RPMI medium. On day 6-8: cells were treated with FGF10 (50 ng/ml), KAAD-cyclopamine ([…] (2 μM) and LDN-193189 (250 nM), B27 in DMEM medium. On day 9-10: cells were treated with exendin-4 (50 ng/ml), SB431542 (2 μM) and B27 in CMRL medium. On day 11-12, cells were treated with T4 (thyroid hormone, 0.02 nM) and B27 in CMRL medium. After day 12, cells were incubated in CMRL medium with B27. Cells were analyzed between day 14 and day 16.
as §1
(§3) To determine Insulin or proinsulin content within the cell, differentiated cells were collected and lysed by M-PER protein extraction reagent (Thermo Scientific). Proinsulin and insulin contents were measured by using human proinsulin and insulin ELISA kits (Mercodia). Quantification of positively stained cells was analyzed using Celigo Cytometer system (Cyntellect), and flow cytometry analysis. To normalize insulin content to beta cell number, cultures were dissociated to single cells, and divided into three fractions: 20% of cells for cell number quantification, 40% for RNA analysis and 40% for ELISA assay to determine insulin content.
Differentiated beta cells were treated with or without 10 nM TG for 12 hours, and then fixed in 2.5% glutaraldehyde in 0.1 M Sorenson's buffer (pH 7.2) for one hour. Samples were processed and imaged by Dignostic Service, Department of Pathology and Cell Biology, Columbia University. Secretory granule structure and endoplasmic reticulum (ER) morphology were visually recognized. The number of granules was determined using ImageJ software.

control beta cells [2] = assay: UPR, insulin and proinsulin content and ER morphology in control beta cells
Method: as §2
Wolfram and control iPSCs or fibroblasts were incubated with indicated dosages of thapsigargin (TG) or tunicamycin (TM) (Both were from Sigma) for 6 hours after an overnight starvation. 1 mM Sodium 4-phenylbutyrate (4PBA) (EMD Chemicals Inc.) was administrated one hour prior to and through TG or TM treatment. Cells were harvested and subjected to RNA and protein analysis. In vitro differentiated beta cells were treated with 10 nM TG for 12 hours, or 0.5 μg/ml TM for 6 hours with or without 1 mM 4PBA treatment one hour prior to and through TG or TM treatment. […] GRP78 protein level was determined by western blot using mouse-anti GRP78 antibody (Santa Cruz, sc-166490).
as §3
Differentiated beta cells were treated with or without 10 nM TG for 12 hours, and then fixed in 2.5% glutaraldehyde in 0.1 M Sorenson's buffer (pH 7.2) for one hour. […] The number of granules was determined using ImageJ software.

Wolfram beta cells [3] = assay: In vitro insulin and glucagon secretion assay, Wolfram beta cells
Method: as §1
(§4) Cells were cultured in 12-well dishes. After 14 days of differentiation, cells were washed for 1 hour in CMRL medium, then incubated in 300 μl CMRL medium containing 5.6 mM glucose for 1 hour and the medium was collected. After that, 300 μl CMRL medium containing 16.9 mM glucose, or 15 mM arginine, or 30 mM potassium, or 1 mM DBcAMP+16.9 mM glucose was used to treat cells for 1 hour and then the medium was collected. Human C-peptide concentration in the medium was measured by ultra-sensitive human C-peptide ELISA kit according to manufacturer's instructions (Mercodia). Glucagon levels in medium were measured by using Glucagon ELISA kit (ALPCO Diagnostics).

control beta cells [4] = assay: In vitro insulin and glucagon secretion assay, control beta cells
Method: as §1, §4

[5] = tested on: GCK mutant iPS-derived beta-like cells; assay: Insulin (C-peptide) secretion assay in vitro, GCK mutant beta-like cells; conditions: 1 hour, identical to control cells
Method: Typically, cells were cultured in 12-well dishes. After 12 days of differentiation, cells were washed for 1 hour in CMRL medium. Cells were then incubated in 300 μl CMRL medium containing 5.6 mM glucose for 1 hour and the medium was collected. Subsequently, 300 μl CMRL medium containing 16.9 mM glucose or other secretagogues was used to treat cells for 1 hour, following which the medium was collected. For in vivo tests, mice were deprived of food overnight with ad libitium access to water. After 12-14 hours of fasting, capillary blood glucose concentrations were determined by tail vein bleed using an AlphaTRACK glucometer (Abbott). Venous blood samples were collected via the submandibular vein. Intraperitoneal glucose was then administered (1 mg/g body weight) and ½ hour later blood samples were obtained via the submandibular vein. Blood samples were kept at room temperature for 2 hours and serum was obtained by centrifuging blood samples at 4000 rpm for 15 min. C-peptide concentrations in medium or mouse serum were measure using an ultrasensitive human C-peptide ELISA kit according to manufacturer's instructions (Mercodia). […]
Typically, cells were cultured in 12-well dishes. […] After 12-14 hours of fasting, capillary blood glucose concentrations were determined by tail bleed using an AlphaTRACK glucometer (Abbott). […]

[6] = Wolfram beta cells, TG 10 nM, 12 hours
[7] = control cells, arginine stimulation, TG treatment

## C/C=C(/C)C(=O)O[C@H]1C(C)=C2[C@H]([C@@H]1OC(=O)CCCCCCC)[C@@](C)(OC(C)=O)C[C@H](OC(=O)CCC)[C@@]1(O)[C@H]2OC(=O)[C@@]1(C)O [TG, thapsigargin]
Wolfram iPS cells; Wolfram cells, 10 nM TG, 6 hour
  increase of GRP78 mRNA: 4 fold
Wolfram iPS cells; stem cells, increasing concentration of TG, 6 hours
  GRP78 mRNA level: dose-dependent increase
Control iPS cells
  increase of GRP78 mRNA: 2 fold
Wolfram beta cells [1]; Wolfram beta cells challenged with TG, ~0.55 without TG
  proinsulin to insulin ratio: 0.73
Wolfram beta cells [1]; Wolfram beta cells, 12 hours of 10 nM TG
  ER morphology (TEM): greatly dilated
Wolfram beta cells [1]; [6]
  reduction of insulin production at the mRNA level: 46%
  reduction of insulin production at the protein level: 31%
Control beta cells [2]; control beta cells challenged with TG, ~0.47 without TG
  proinsulin to insulin ratio: 0.51
Control beta cells [2]; control cells, 12 hours of 10 nM TG
  ER morphology (TEM): remained unaffected
Control beta cells [2]; control cells, TG 10 nM, 12 hours
  production of insulin: unaffected
Wolfram beta cells [3]; TG treated Wolfram cells (10 nM, 12 hour)
  insulin secretion in response to 16.9 mM glucose: failed to increase insulin secretion
Wolfram beta cells [3]; WFS1 cells, arginine stimulation, TG treatment
  reduction of stimulated glucagon secretion: 24%
Wolfram beta cells [3]; WFS1 mutant cells, arginine stimulation, TG treatment
  reduction of stimulated insulin secretion: 43%
Wolfram beta cells [3]; Wolfram beta cells treated with TG, 2.6 without TG
  response to DBcAMP (C-peptide secretion): 1.2 fold
Wolfram beta cells [3]; Wolfram beta cells treated with TG, 3.9 without TG
  insulin-secretion in response to potassium: 2.2 fold
Wolfram beta cells [3]; Wolfram beta cells treated with TG, 4.0 without TG
  fold increase of C-peptide in the medium in response to arginine: 2.3 fold
Control beta cells [4]; TG treated control beta cells (10 nM, 12 hour)
  increase of insulin output in response to 16.9 mM glucose: 1.6 fold
Control beta cells [4]; [7]
  reduction of stimulated glucagon secretion: 28%
  reduction of stimulated insulin secretion: −3%

## COC(=O)C1=C(C)NC(C)=C([N+](=O)[O-])C1c1ccccc1C(F)(F)F (stereo not drawn) [Bay K8644]
[5]; GCK^G299R/+ and GCK^G299R/hygro cells
  increase in C-peptide release: 3-5 fold
[5]; GCK^G299R/+ cells
  increase in C-peptide release: 5 fold
